Experimental data reported in article PMC9223764, “In Vitro Selection and Characterization of HIV-1 Variants with Increased Resistance to LP-40, Enfuvirtide-Based Lipopeptide Inhibitor” (International Journal of Molecular Sciences, 2022).
Where a SMILES comes first, the peptide text is derived from it. The star is where a group is joined. Palmitoyl = CCCCCCCCCCCCCCCC(=O)*

What was measured:
Type in all cases: cell-based
[1] = test system: LP40-V1 pseudovirus (HIV-1 NL4-3 Env mutant); settings: for IC50: LP40-V1 (Env selected at LP-40 0.3 µM), TZM-bl cells, 48 h, luciferase, mean ± SD, triplicate, repeated three times
Protocol: (§1) To simulate the sequence changes of viral resistance genes under different drug concentration pressures, we constructed the Env genes under different drug concentration pressures in the PCDNA3.1 vector and obtained a series of mutations. […] T20-V 6~12, T20-V 13~14, and T 20-V 15~18 were constructed at concentrations of 200 µM (P21), 400 µM (P24), and 2000 µM (P32), respectively. Similarly, the LP-40 pressure concentrations were 0.3 µM, 8 µM, 20 µM, and 200 µM, respectively, and the constructs were numbered LP40-V 1~5, LP40-V 6~8, LP40-V 9~11, and LP40-V 12~15. Resistance mutations will cause varying levels of damage to the function of the pseudoviral envelope proteins. Here, we explored how serial mutations affect the function of viral envelope proteins. Based on this problem, we performed a single round of quantitative P24-infection experiments, packaging the pseudovirus with a previously constructed series of mutant plasmids. We compared the invasion ability of the HIV-1 wild-type and mutant pseudoviruses toward target cells under the same P24 content (using the invasion capacity of each subtype as 100%).
(§2) The infectivity of HIV Env mutants and the inhibitory activities of membrane fusion inhibitors on mutants in TZM-bl cells were measured using a single-cycle infection assay as described previously. Briefly, the HIV pseudovirus was packed using an Env-coding plasmid, and pSG3ΔEnv was co-transfected into HEK293T cells. pSG3ΔEnv encodes an Env-defective, luciferase-expressing HIV-1 genome. After the pseudoviruses were harvested and filtrated, the amount of pseudoviruses was fixed via P24 antigen, and their infectivity was determined in TZM-bl cells. In order to measure the inhibitory activities of the inhibitors, inhibitors diluted serially 3-fold were mixed with an equal volume of pseudoviruses, and then 100 µL 1 × 10^5/mL TZM-bl cells were added to the mixture and incubated at 37 °C with 5% CO2 for 48 h. After that, TZM-bl cells were lysed using reporter lysis buffer, and IC50 values were calculated according to luciferase activity measured by luciferase assay reagents and a luminescence counter (Promega, Madison, WI, USA).

[2] = test system: T20-V1 pseudovirus (HIV-1 NL4-3 Env mutant); settings: for IC50: T20-V1 (Env selected at T20 12 µM, P9), TZM-bl cells, 48 h, luciferase, mean ± SD, triplicate, repeated three times
Protocol: as §1, §2

[3] = test system: LP40-V12 pseudovirus (HIV-1 NL4-3 Env mutant); settings: for IC50: LP40-V12 (Env selected at LP-40 200 µM), TZM-bl cells, 48 h, luciferase, mean ± SD, triplicate, repeated three times
Protocol: as §1, §2

[4] = test system: LP40-V10 pseudovirus (HIV-1 NL4-3 Env mutant); settings: for IC50: LP40-V10 (Env selected at LP-40 20 µM), TZM-bl cells, 48 h, luciferase, mean ± SD, triplicate, repeated three times
Protocol: as §1, §2

[5] = test system: LP40-V14 pseudovirus (HIV-1 NL4-3 Env mutant); settings: for IC50: LP40-V14 (Env selected at LP-40 200 µM), TZM-bl cells, 48 h, luciferase, mean ± SD, triplicate, repeated three times
Protocol: as §1, §2

[6] = test system: T20-V8 pseudovirus (HIV-1 NL4-3 Env mutant); settings: T20-V8 (Env selected at T20 200 µM, P21); TZM-bl cells, 48 h, luciferase; mean ± SD, triplicate, repeated three times
Protocol: as §1, §2

[7] = test system: T20-V16 pseudovirus (HIV-1 NL4-3 Env mutant); settings: for IC50: T20-V16 (Env selected at T20 2000 µM, P32), TZM-bl cells, 48 h, luciferase, mean ± SD, triplicate, repeated three times
Protocol: as §1, §2

[8] = test system: T20-V2 pseudovirus (HIV-1 NL4-3 Env mutant); settings: for IC50: T20-V2 (Env selected at T20 12 µM, P9), TZM-bl cells, 48 h, luciferase, mean ± SD, triplicate, repeated three times
Protocol: as §1, §2

[9] = test system: LP40-V11 pseudovirus (HIV-1 NL4-3 Env mutant); settings: for IC50: LP40-V11 (Env selected at LP-40 20 µM), TZM-bl cells, 48 h, luciferase, mean ± SD, triplicate, repeated three times
Protocol: as §1, §2

[10] = test system: LP40-V9 pseudovirus (HIV-1 NL4-3 Env mutant); settings: for IC50: LP40-V9 (Env selected at LP-40 20 µM), TZM-bl cells, 48 h, luciferase, mean ± SD, triplicate, repeated three times
Protocol: as §1, §2

[11] = test system: HIV-1 NL4-3 gp41 L33S/V38A/N42T pseudovirus; settings: Table 3; for IC50: L33S/V38A/N42T, TZM-bl cells, 48 h, luciferase, means, triplicate, repeated three times
Protocol: (§3) We selected LP-40-induced drug resistance typical point mutations and combination mutation pseudoviruses to evaluate the current representative membrane fusion inhibitors.
as §2

[12] = test system: HIV-1 NL4-3 gp41 NDQEEDYN pseudovirus; settings: Table 3; for IC50: NDQEEDYN (E109N, N113D, E119Q, D121E, N125E, S129D, H132Y, S133N), TZM-bl cells, 48 h, luciferase, means, triplicate, repeated three times
Protocol: as §3, §2

[13] = test system: HIV-1 NL4-3 gp41 V38A/N42T pseudovirus; settings: Table 3; for IC50: V38A/N42T, TZM-bl cells, 48 h, luciferase, means, triplicate, repeated three times
Protocol: as §3, §2

[14] = test system: HIV-1 NL4-3 gp41 L33S/I37T pseudovirus; settings: Table 3; for IC50: L33S/I37T, TZM-bl cells, 48 h, luciferase, means, triplicate, repeated three times
Protocol: as §3, §2

[15] = test system: HIV-1 NL4-3 gp41 NDQEEDYN/L33S/V38A/N42T pseudovirus; settings: Table 3; for IC50: NDQEEDYN/L33S/V38A/N42T, TZM-bl cells, 48 h, luciferase, means, triplicate, repeated three times
Protocol: as §3, §2

| Compound | IC50 [1] [nM] | IC50 [2] [nM] | IC50 [3] [nM] | IC50 [4] [nM] | IC50 [5] [nM] | IC50 [6] [nM] | IC50 [7] [nM] | IC50 [8] [nM] | IC50 [9] [nM] | IC50 [10] [nM] | IC50 [11] [nM] | IC50 [12] [nM] | IC50 [13] [nM] | IC50 [14] [nM] | IC50 [15] [nM] | also measured |
| --- | --- | --- | --- | --- | --- | --- | --- | --- | --- | --- | --- | --- | --- | --- | --- | --- |
| Enfuvirtide | 59.8 ± 16.3 | 57.7 ± 7.23 | 5870 ± 978 | 1260 ± 264 | 4910 ± 2000 | 5280 ± 1100 | 1740 ± 229 | 147 ± 39.4 | 4350 ± 522 | 1270 ± 315 | 4920 | 62.5 | 3350 | 5850 | 4780 |  |
| CCCCCCCCCCCCCCCC(=O)NCCCC[C@H](NC(=O)[C@H](CC(=O)O)NC(=O)[C@H](CC(C)C)NC(=O)[C@H](CCC(=O)O)NC(=O)[C@H](CC(C)C)NC(=O)[C@H](CC(C)C)NC(=O)[C@H](CCC(=O)O)NC(=O)[C@H](CCC(N)=O)NC(=O)[C@H](CCC(=O)O)NC(=O)[C@H](CC(N)=O)NC(=O)[C@H](CCCCN)NC(=O)[C@H](CCC(=O)O)NC(=O)[C@H](CCC(N)=O)NC(=O)[C@H](CCC(N)=O)NC(=O)[C@H](CC(N)=O)NC(=O)[C@H](CCC(N)=O)NC(=O)[C@H](CO)NC(=O)[C@H](CCC(=O)O)NC(=O)[C@H](CCC(=O)O)NC(=O)[C@@H](NC(=O)[C@H](CC(C)C)NC(=O)[C@H](CO)NC(=O)[C@H](Cc1c[nH]cn1)NC(=O)[C@@H](NC(=O)[C@H](CC(C)C)NC(=O)[C@H](CO)NC(=O)[C@@H](NC(=O)[C@H](Cc1ccc(O)cc1)NC(C)=O)[C@@H](C)O)[C@@H](C)CC)[C@@H](C)CC)C(N)=O [LP-40] (Ac-YTSLIHSLIEESQNQQEKNEQELLELDK(Palmitoyl)-NH2) | 44.9 ± 4.39 | 40.1 ± 8.62 | > 6250 | 2750 ± 634 | > 6250 | > 6250 | > 6250 | 59.2 ± 15.9 | 3330 ± 978 | 2890 ± 431 | 4990 | 100 | 4070 | 2980 | > 6250 | Fold change in IC50 ([1]; LP40-V1 relative to WT NL4-3, Table 1): 1.51 fold; Fold change in IC50 ([2]; T20-V1 relative to WT NL4-3, Table 1): 1.35 fold; Fold change in IC50 ([3]; LP40-V12 relative to WT NL4-3, Table 1): >227.43 fold; Fold change in IC50 ([4]; LP40-V10 relative to WT NL4-3, Table 1): 92.52 fold; Fold change in IC50 ([5]; LP40-V14 relative to WT NL4-3, Table 1): >227.43 fold; Fold change in IC50 ([7]; T20-V16 relative to WT NL4-3, Table 1): >227.43 fold; Fold change in IC50 ([8]; T20-V2 relative to WT NL4-3, Table 1): 2.00 fold; Fold change in IC50 ([9]; LP40-V11 relative to WT NL4-3, Table 1): 112.32 fold; Fold change in IC50 ([10]; LP40-V9 relative to WT NL4-3, Table 1): 97.22 fold; Fold change in IC50 ([11]; L33S/V38A/N42T relative to WT NL4-3): 182.67 fold; Fold change in IC50 ([12]; NDQEEDYN relative to WT NL4-3): 3.67 fold; Fold change in IC50 ([13]; V38A/N42T relative to WT NL4-3): 149.15 fold; Fold change in IC50 ([14]; L33S/I37T relative to WT NL4-3): 109.04 fold; Fold change in IC50 ([15]; NDQEEDYN/L33S/V38A/N42T relative to WT NL4-3): >228.77 fold |
